From patent EP0773287A1, “Immortalised embryonic hyppocampal cells and their use” (BAYER AG, priority 1995, dated 1997)
Like-named read-outs stand apart in the source and are kept apart here.

Assays:
Format in all cases: cell-based, murine
[1] = test system: HNMMCV11.2.0; assay: Ca2+-imaging (Fura-2) of intracellular calcium after application of agonists
Protocol: (§1) Fluorescent Probe: Dynamic changes of intracellular calcium concentration were measured using the Fura-2 fluorescent probe (Roe et al. 1990, Cell Calcium 11:63-73). This fluorescent dye was chosen because of its selectivity, high quantum yield and extinction co-efficient. Fura-2 permeates the living cell as a acetoxymethylester and becomes trapped within the cell after hydrolysis by intracellular esterases. The calcium-sensitive free acid of Fura-2 is able to bind to calcium ions inside the cell. Fura-2 has an excitation maximum at 380 nm and the Fura2/calcium complex peaks at 340 nm. A change in intracellular calcium concentration was calculated by recording fluorescent video images at wavelengths of 340nm and 380nm excitation and 510nm emission and by dividing the grey values of the digitized video images of 380nm from 340nm.
(§2) Loading cells with Fura-2: A stock solution with 2mM Fura-2-acetoxymethylester in dimethylsulfoxide (DMSO) was diluted to 5-10 µM with serum free Minimal Essential Medium (MEM, Gibco) containing 1.5% bovine serum albumin and 5 mM calcium chloride. The cells were incubated in a Falcon 96 well plate for 45-60 minutes at 37°C. Subsequently the cells were washed twice in N-(2-Hydroxyethyl)piperazine-N'-(2-ethanesulfonic acid) (HEPES, 5mM) buffered Tyrode solution (HEPES buffered salt solution containing 130 mM NaCl, 5 mM KCl, 2 mM CaCl2, 1 mM MgCl2, 5mM NaHCO3, 11 mM Glucose).
(§3) Imaging procedure: 100 µl of Tyrode buffer was added to the plate wells and the cells were sequencially exposed to light at 340 nm and 380 nm under a fluorescent microscope (Nikon Diaphot). The exposition time was 100 ms. A series of video images at 3 second intervals was acquired and stored as digitised pictures in the image boards of an image analysis computer (Leica, Quantimet 570). After the acquisition of 8 images the test substances were applied. The grey levels of the cells, which correspond to the fluorescence intensity, were measured in the recorded video images. The ratio was determined by dividing the measured grey levels of the "380 nm images" by the grey levels of the "340 nm images" either from averaged images or from individual cells. For averaged results, the grey levels were measured over the whole images.
(§4) The cells were loaded with Fura 2/AM between day 3 and 7 in culture. A number of agonists were tested for their ability to activate specific receptors on the cell surface which lead to a rise in intracellular calcium. The rise in calcium concentration in the cytoplasm can occur after activation of specific calcium channels in the cell membrane, after activation of neurotransmitter receptors directly coupled to ion channels that are permeable to calcium ions (i.e. NMDA or AMPA type glutamate receptors), or by activation of receptors, which propagate the signal through the activation of specific G-proteins, which regulate the activity of different enzymes in the interior of the cell (Connor, Cell Calcium 14 (1993), 185-200; Crouch and Hendry, Medical Res. Rev. 13 (1993), 105-123). The activation of phospholipase C generates the second messengers diacylglycerol and inositoltriphosphate from phospholipids in the cell membrane. The binding of inositoltriphosphate to receptors localised on internal vesicles which store calcium ions leads to a transient rise in the concentration of calcium ions in the cytoplasm (Berridge, M.J. 1993, Nature 361: 315-325).

[2] = test system: HNMMCV13.1.E; assay: as above
Protocol: as §1, §2, §3, §4

[3] = test system: HNMMCV13.1.F; assay: as above
Protocol: as §1, §2, §3, §4

[4] = test system: HC e/n XV.B cells; assay: as above
Protocol: as §1, §2, §3, §4

[5] = test system: HNMMCV14.1.A; assay: as above
Protocol: as §1, §2, §3, §4

[6] = test system: HC e/n XVB cells; assay: Whole-cell patch-clamp recording of ligand-activated currents; settings: for ligand-activated currents (electrophysiological recordings): membrane potential clamped to -70mV
Protocol: (§5) Electrophysiological setup: Membrane currents were measured with the patchclamp technique in the whole-cell recording configuration (Hamill et al. 1981, Pfluegers Arch. 391:85-100). Current signals were amplified with conventional electronics (EPC-9 amplifier, HEKA Elektronik GmbH, Lambrecht, Germany), filtered at 10kHz, and sampled at 5 kHz by an interface connected to an IBM AT-compatible computer system, which also served as a stimulus generator.
(§6) Solutions and electrodes: The standard bathing solution contained (in mM): Nacl 150, KCL 5, MgCl2 1.8, HEPES 5, and glucose 10. In some experiments an equimolar amount of NaCl was replaced by 5mM BaCl2. Recording pipettes had resistances about 5MΩ (Hilgenberg, Malsfeld, Germany). The pipettes contained (in mM): KCL 140, CaCl2 0.5, EGTA 5, MgCl2 2, and HEPES 10. The pH was adjusted to 7.4. In some experiments the pipette solution was designed to minimize the contribution of voltage-activated currents. In this case, investigating the ligand-activated currents, the pipette solution contained (in mM): CsCl 140, EGTA 10, and HEPES 10.
(§7) Ligands were dissolved in the extracellular saline solution and applied via an U-tube application system. To record ligand-induced currents, the membrane potential was clamped to -70mV. For measurements of voltage-activated currents, cells were held at -70mV and every second the membrane was stepped through a 50 msec. de- or hyperpolarising test pulse to a potential between -170 and +20 mV.

[7] = test system: HNMMCV14.1.A; assay: as above
Protocol: as §5, §6, §7

[8] = test system: metabotropic glutamate receptor(s) (mGluR) expressed by HNMMCV14.1A cells; assay: Phosphoinositide hydrolysis: accumulation of 3H-inositol phosphates; settings: for EC50: read-out: EC50 inositolphosphate accumulation
Protocol: Phosphoinositide hydrolysis was determined by measuring the accumulation of ^3H-inositol phosphates. The cells were plated in 48-well plates (Costar) at a density of 10000 cells per well and incubated for 4-5 days at 37°C, 7% CO2. Then the cells were labeled by incubation with 4 µCi of myo-2-^3H-inositol per ml medium (specific activity: […]: Amersham). After 24 h LiCl (10 mM final concentration) was added to the cells for 1 h. Agonists were then added at the concentrations indicated. The incubation was stopped after 1 h by replacing the medium with 200 µl ice-cold methanol. 400 µl of destilled water was added and the sample was directly applied to AG-1X8 ion exchange columns (AG-1X8 resin: BioRad). Free inositol and glycerophosphoryl-inositol were washed away with 16 ml destilled water followed by 10 ml 5 mM disodium-tetraborate, 60 mM sodium formate. Total ^3H-inositol phosphates (IP1, IP2, IP3) were eluted with 7 ml of 100 mM formic acid, 1 M ammonium formate. Radioactivity of the eluted ^3H-inositol phosphates was determined by liquid scintillation counting after addition of 13 ml liquid scintillation cocktail (Ultima Gold: Canberra Packard). Measurements were performed in triplicates for each experimental point. Untreated controls were set as 100% and the other values calculated in relation to this.
The columns were prepared as follows: 1 ml pipet tips were filled with one glass bead (Roth) per tip before adding 500 µl AG-1X8 resin. The resin was compressed with air and 270 µl seasand was applied. Until use they were stored at 4°C.

[9] = HNMMCV13.1.F, concentrations (glutamate 10µM to 10 mM; AMPA, kainic acid, serotonine, dopamine, carbachol up to 1mM; NMDA up to 500µM)
[10] = differentiated HC e/n XVB cells, AMPA 100µM, NMDA 1mM, kainate 1mM, glutamate 1mM
[11] = 14.1.A, membrane potential clamped to -70mV
[12] = HC e/n XV.B cells, state of differentiation not stated, up to 1mM
[13] = HNMMCV14.1A cells, agonist 1 h, LiCl 10 mM
[14] = differentiated HC e/n XV.B cells

Cc1onc(O)c1CC(N)C(=O)O (stereo not shown) [AMPA, ∝-amino-3-hydroxy-5-methyl-4-isoxazol-propionic acid]
rise in intracellular calcium concentration (result in words) ([1]; HNMMCV11.2.0): did not result in a transient rise
rise in intracellular calcium concentration (result in words) ([2]; HNMMCV13.1.E): did not result in a transient rise
rise in intracellular calcium concentration (result in words) [3, 9]: did not result in a transient rise
rise in intracellular calcium concentration (result in words) ([4]; undifferentiated HC e/n XV.B cells): did not result in a transient rise
rise in intracellular calcium concentration (result in words) ([5]; HNMMCV14.1.A): did not result in a transient rise
ligand-activated currents (electrophysiological recordings) ([6]; XV. B/ - EGF): + (+: 10-30% positive cells)
ligand-induced inward currents (result in words) [6, 10]: evoked responses

CC(=O)OCC[N+](C)(C)C [Acetylcholine, acetylcholine]
ligand-activated currents (electrophysiological recordings) ([6]; XV. B/ - EGF): -
ligand-activated currents (electrophysiological recordings) [7, 11]: + (+: 10-30% positive cells)

N#Cc1cc2[nH]c(=O)c(=O)[nH]c2cc1[N+](=O)[O-] [CNQX, 6-nitro-7-cyanochinoxalin-2,3-dione]
antagonism of the calcium signals recorded after application of glutamate ([3]; glutamate 100µM, CNQX 100µM, cells not given, Table 5 gives 13.1.F): not antagonised

C[N+](C)(C)CCOC(N)=O [Carbachol]
rise in intracellular calcium concentration (result in words) [4, 12]: reproducible signal

NCCc1ccc(O)c(O)c1 [Dopamine, dopamine]
rise in intracellular calcium concentration (result in words) ([1]; HNMMCV11.2.0): did not lead to a specific signal
rise in intracellular calcium concentration (result in words) ([2]; HNMMCV13.1.E): did not lead to a specific signal
rise in intracellular calcium concentration (result in words) [3, 9]: did not lead to a specific signal
rise in intracellular calcium concentration (result in words) [4, 12]: did not lead to a specific signal
rise in intracellular calcium concentration (result in words) ([5]; HNMMCV14.1.A): did not lead to a specific signal

NCCCC(=O)O [GABA]
ligand-activated currents (electrophysiological recordings) ([6]; XV. B/ - EGF): +++ (+++: 70-100% positive cells)
ligand-activated currents (electrophysiological recordings) ([6]; XV. B): + (+: 10-30% positive cells)
ligand-induced inward currents (result in words) [6, 10]: prominent resonses
ligand-activated currents (electrophysiological recordings) [7, 11]: ++ (++: 30-70% positive cells)

C=C(C)[C@H]1CN[C@H](C(=O)O)[C@H]1CC(=O)O [Kainate, kainic acid]
rise in intracellular calcium concentration (result in words) [1]: did not result in a transient rise
transient calcium currents after the application of agonists and antagonists (Calcium - Imaging) [1]: -
rise in intracellular calcium concentration (result in words) [2]: did not result in a transient rise
transient calcium currents after the application of agonists and antagonists (Calcium - Imaging) [2]: -
rise in intracellular calcium concentration (result in words) [3]: did not result in a transient rise
transient calcium currents after the application of agonists and antagonists (Calcium - Imaging) [3]: -
rise in intracellular calcium concentration (result in words) [4]: reproducible calcium signal
rise in intracellular calcium concentration (result in words) [5]: did not result in a transient rise
transient calcium currents after the application of agonists and antagonists (Calcium - Imaging) [5]: -
ligand-induced inward currents (result in words) [6]: evoked responses
ligand-activated currents (electrophysiological recordings) [7]: + / -

CN[C@H](CC(=O)O)C(=O)O [NMDA, N-methyl-D-aspartate]
ligand-activated currents (electrophysiological recordings) ([6]; XV. B/ - EGF): ++ (++: 30-70% positive cells)

N[C@@H](Cn1oc(=O)[nH]c1=O)C(=O)O [Quisqualate, quisqualate]
effect on inositolphosphate accumulation (result in words) ([8]; HNMMCV14.1A cells): concentration dependent increase
maximum response of inositolphosphate accumulation compared with glutamate ([8]; HNMMCV14.1A cells): slightly weaker
EC50 [8, 13]: 0.02 µM

NCCc1c[nH]c2ccc(O)cc12 [Serotonine]
rise in intracellular calcium concentration (result in words) ([1]; HNMMCV11.2.0): did not lead to a specific signal
rise in intracellular calcium concentration (result in words) ([2]; HNMMCV13.1.E): did not lead to a specific signal
rise in intracellular calcium concentration (result in words) [3, 9]: did not lead to a specific signal
rise in intracellular calcium concentration (result in words) [4, 12]: did not lead to a specific signal
rise in intracellular calcium concentration (result in words) ([5]; HNMMCV14.1.A): did not lead to a specific signal

CN1CCc2cc3c(cc2[C@H]1[C@@H]1OC(=O)c2c1ccc1c2OCO1)OCO3 [bicuculline]
effect on the GABA-response [6]: blocked

NC(C(=O)O)c1cc(O)no1 (stereo not shown) [ibotenate]
effect on inositolphosphate accumulation (result in words) [8]: concentration dependent increase
maximum response of inositolphosphate accumulation compared with glutamate [8]: slightly weaker
EC50 [8]: 5 µM

NCc1cc(=O)[nH]o1 [muscimol]
effect on the GABA-response ([6]; HC e/n XVB cells): mimicked

N[C@@]1(C(=O)O)CC[C@@H](C(=O)O)C1 [t-ACPD, 1S3R-aminocyclopentane-1,3-dicarboxylate]
rise in intracellular calcium concentration (result in words) ([1]; HNMMCV11.2.0): strong
rise in intracellular calcium concentration (result in words) ([2]; HNMMCV13.1.E): strong
rise in intracellular calcium concentration (result in words) [3, 9]: strong
rise in intracellular calcium concentration (result in words) [4, 14]: weak signals
rise in intracellular calcium concentration (result in words) ([5]; HNMMCV14.1.A): strong
effect on inositolphosphate accumulation (result in words) ([8]; HNMMCV14.1A cells): concentration dependent increase
maximum response of inositolphosphate accumulation compared with glutamate ([8]; HNMMCV14.1A cells): slightly weaker
EC50 [8, 13]: 20 µM

L-carboxycyclopropylglycin [L-CCG 1]
rise in intracellular calcium concentration (result in words) ([1]; HNMMCV11.2.0): strong
rise in intracellular calcium concentration (result in words) ([2]; HNMMCV13.1.E): strong
rise in intracellular calcium concentration (result in words) [3, 9]: strong
rise in intracellular calcium concentration (result in words) [4, 14]: weak signals
rise in intracellular calcium concentration (result in words) ([5]; HNMMCV14.1.A): strong
